Experimental data reported in patent US11466010B2, “Toll-like receptor 8 (TLR8) specific antagonists and methods of making and uses thereof” (The Regents of the University of Colorado, a body corporate, priority 2017, dated 2022).

Tests used:
human TLR8 transgene = target: T1, human TLR8 transgene (Homo sapiens, UniProt Q9NR97); experiment: IL-12p40 production in splenocytes from hTLR8tg/TLR7-KO mice, TLR8 agonist ORN8L; type: cell-based, mouse; settings: ORN8L 100 ug/mL, 48 hours
T1 construct: expressed in transfected cells; host or cells: primary splenocytes from hTLR8tg/TLR7-KO mice
T1 sequence (Q9NR97 27-1041): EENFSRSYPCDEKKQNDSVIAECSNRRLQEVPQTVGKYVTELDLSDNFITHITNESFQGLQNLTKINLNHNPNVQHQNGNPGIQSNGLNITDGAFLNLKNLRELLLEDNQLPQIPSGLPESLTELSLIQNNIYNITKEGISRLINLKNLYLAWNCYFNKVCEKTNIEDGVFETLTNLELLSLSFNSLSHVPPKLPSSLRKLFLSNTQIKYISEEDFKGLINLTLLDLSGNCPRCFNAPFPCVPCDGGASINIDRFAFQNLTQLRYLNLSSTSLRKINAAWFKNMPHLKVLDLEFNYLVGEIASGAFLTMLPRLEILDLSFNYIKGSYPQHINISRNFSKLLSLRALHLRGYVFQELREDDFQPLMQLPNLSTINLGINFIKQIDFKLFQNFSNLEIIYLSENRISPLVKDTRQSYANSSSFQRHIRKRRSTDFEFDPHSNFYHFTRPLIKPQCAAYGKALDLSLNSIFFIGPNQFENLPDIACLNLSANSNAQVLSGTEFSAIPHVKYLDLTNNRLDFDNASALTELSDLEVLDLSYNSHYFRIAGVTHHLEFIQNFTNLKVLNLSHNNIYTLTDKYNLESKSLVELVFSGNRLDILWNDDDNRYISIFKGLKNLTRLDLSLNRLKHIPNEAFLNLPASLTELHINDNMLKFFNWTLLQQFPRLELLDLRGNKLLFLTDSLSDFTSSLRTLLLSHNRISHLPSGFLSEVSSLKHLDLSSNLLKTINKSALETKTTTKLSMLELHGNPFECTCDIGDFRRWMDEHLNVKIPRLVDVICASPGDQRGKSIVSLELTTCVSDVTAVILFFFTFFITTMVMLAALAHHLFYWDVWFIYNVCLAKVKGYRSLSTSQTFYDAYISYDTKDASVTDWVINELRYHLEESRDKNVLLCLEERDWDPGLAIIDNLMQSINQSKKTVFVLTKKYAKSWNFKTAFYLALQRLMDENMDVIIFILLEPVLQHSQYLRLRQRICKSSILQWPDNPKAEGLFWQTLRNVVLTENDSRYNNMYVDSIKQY
Protocol: Activity on primary mouse splenocytes: To assess TLR8 and TLR9 activity, spleens were isolated from TLR7 knock-out mice harboring a human TLR8 transgene (hTLR8tg/TLR7-KO). Splenocytes were prepared by dissociation through a cell strainer and removal of red blood cells with lysis buffer. Splenocytes were incubated with a dilution series of compounds and a constant amount of a TLR8 agonist (RNA oligonucleotide ORN8L) or a TLR9 agonist (CpG-containing phosphorothioate DNA oligonucleotide 1018). After 48 hours, culture supernatants were collected and analyzed for IL-12p40 production. Curves represent activity from a single spleen.

TLR7 = target: T2, TLR7 (Homo sapiens, UniProt Q9NYK1); experiment: SEAP assay in HEK-Blue TLR7 cells activated by R848; type: cell-based; settings: below approx. micromolar concentration
T2 construct: host or cells: HEK-Blue TLR7 cells
T2 sequence (Q9NYK1 27-1049): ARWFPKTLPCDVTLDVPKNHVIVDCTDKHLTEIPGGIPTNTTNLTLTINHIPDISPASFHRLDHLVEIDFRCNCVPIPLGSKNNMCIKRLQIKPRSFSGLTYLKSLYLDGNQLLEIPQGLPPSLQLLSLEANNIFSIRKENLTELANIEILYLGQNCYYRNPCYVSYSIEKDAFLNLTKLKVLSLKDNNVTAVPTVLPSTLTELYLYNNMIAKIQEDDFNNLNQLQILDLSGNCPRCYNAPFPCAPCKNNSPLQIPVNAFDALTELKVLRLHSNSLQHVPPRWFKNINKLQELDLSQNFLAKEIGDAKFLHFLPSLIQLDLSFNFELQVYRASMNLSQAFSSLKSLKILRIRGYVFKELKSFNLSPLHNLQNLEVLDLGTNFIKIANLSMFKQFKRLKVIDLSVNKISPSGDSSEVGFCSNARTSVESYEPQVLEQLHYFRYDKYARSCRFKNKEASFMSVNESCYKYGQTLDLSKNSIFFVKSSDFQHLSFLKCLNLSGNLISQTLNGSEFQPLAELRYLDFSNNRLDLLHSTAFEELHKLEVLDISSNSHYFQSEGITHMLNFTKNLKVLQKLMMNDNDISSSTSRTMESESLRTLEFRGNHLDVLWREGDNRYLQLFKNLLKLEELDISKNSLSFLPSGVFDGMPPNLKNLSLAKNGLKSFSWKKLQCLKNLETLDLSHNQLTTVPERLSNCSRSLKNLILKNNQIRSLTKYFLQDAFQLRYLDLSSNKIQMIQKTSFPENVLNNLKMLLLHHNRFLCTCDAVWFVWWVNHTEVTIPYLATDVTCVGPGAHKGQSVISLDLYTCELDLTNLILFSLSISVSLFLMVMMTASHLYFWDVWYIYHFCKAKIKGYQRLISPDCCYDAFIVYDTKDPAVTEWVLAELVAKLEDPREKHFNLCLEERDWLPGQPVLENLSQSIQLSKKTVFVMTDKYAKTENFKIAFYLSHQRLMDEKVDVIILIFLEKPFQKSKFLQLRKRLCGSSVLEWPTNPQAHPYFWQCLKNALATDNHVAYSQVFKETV
Protocol: TLR selectivity assay: The selectivity of sample compound was tested using SEAP reporter assay in HEK-Blue overexpressing various TLRs. Plates were set up in same manner as described in SEAP assay above.

| IL-12p40 production as a monitor of TLR8 signaling (human TLR8 transgene) | effect on TLR7 (TLR7) | Compound |
| --- | --- | --- |
| inhibition | not affected | COc1ccc2c(-c3ccc(O)c(C)c3)ccnc2c1 [Compound 11a, 2-Methyl-4-(7-methoxyl-4-quinolinyl)-phenol] |
| inhibition | not affected | Cc1cc(-c2ccnc3cc(O)ccc23)ccc1O [Compound 11b, 2-Methyl-4-(7-hydroxyl-4-quinolinyl)-phenol] |
